Data: patent US8362203B2, “Non-natural peptides as models for the development of antibiotics” (priority 2009, dated 2013)

Key:
[1] = tested on: E. coli helix 31 hairpin RNA (ECh31WT); test: Circular dichroism titration of helix 31 RNA with peptide; assay type: binding; settings: 0.5 μM h31, 100 mM NaCl, 10 mM sodium phosphate, 0.1 mM Na2EDTA, pH 7; CD at 270 nm; read-out: apparent KD (circular dichroism)
Protocol: Binding studies with CD. The titration was performed by adding increasing concentrations of peptide (10-80 μM) to 1 mL of 0.5 μM ECh31WT RNA in 10 mM sodium phoshate, 100 mM NaCl, 0.1 mM Na2EDTA at pH 7, and incubated for 2 min for each concentration point followed by spectrum scanning. Prior to titration, the RNA was renatured as described in Chapter 3, Section 3.2.2. RNA-peptide binding was determined by observing CD changes at 270 nm upon addition of peptide to the sample. The CD at 270 nm was converted to a fraction bound ratio and the dissociation constant (KD) of RNA-peptide binding was determined by curve fitting using the Kaleidagraph™ 3.0 program, as described in Chapter 3, Section 3.2.4.
Circular dichroism studies. CD was employed to assess the conformational changes in helix 31 upon binding of the peptide. […] Conformational changes in helix 31 measured by circular dichroism spectroscopy was performed in 100 mM NaCl, 10 mM sodium phosphate, and 0.1 mM Na2EDTA at pH 7. […] The dissociation constant (KD) of RNA-peptide binding was determined by plotting Fr versus peptide concentration, and by curve fitting to Equation, Fr=[P]^n/([P]^n+KD^n) where [P] is the peptide concentration, n is the Hill coefficient, and KD is the apparent dissociation constant (FIG. 56B). […]

[2] = tested on: E. coli h31 RNA (ECh31WT); test: SPR kinetic analysis of binding to immobilized biotinylated helix 31 RNA
Protocol: SPR methods. All immobilization and subsequent binding studies were performed using a BIAcore 2000 instrument set at a temperature of 25° C. Standard dextran surface BIAcore sensorchips (Sensor chip CM5) were purchased from BIAcore. Standard desorb and sanitize routines were performed according to the BIAcore guidelines before docking a new CM5 sensor chip. All buffers were filtered through sterile 0.2 μm nylon membranes (Millipore™) under vacuum. Before derivatizing the flow cells with streptavidin, the CM5 sensor chip was pre-conditioned using three successive 10 μl injections of chip-preparation solution (10 mM NaOH, 500 mM NaCl) at 100 μl/min, followed by a normalization routine using BIAnormalizing solution (40% glycerol). Streptavidin derivatization was performed as described in Chapter 3. Prior to immobilization, the solution of biotinylated RNA in HBS-EP buffer (10 mM HEPES, 3 mM EDTA, 150 mM NaCl, 0.005% P20 at pH 7.4) was renatured by heating to 90° C. for 2 min followed by placing on ice. Flow cells were functionalized by injecting 30 μl of RNA at a time using the MANUAL INJECT command at a flow rate of 10 μl/min, until the desired immobilization level is reached. One of the flow cells was used to immobilize RNA (typically FC4), while another one adjacent to it (FC3) remained unmodified to serve as a blank-control for matrix effects. Levels of RNA captured were calculated by subtracting […] for each flow cell. After RNA immobilization, FC3 and FC4 were blocked with 100 μL of 1 mg/mL biotin at 5 μL/min.
Peptide samples were prepared by serial dilutions from stock solutions into micro-centrifuge tubes. Dilutions are made by the same running buffer to avoid buffer mismatches. […]
Biotinylated helix 31 RNA was immobilized onto a streptavidin-coated CM5 chip and differing concentrations of 17 (TYLPWPA)-GFP (“TYLPWPA” disclosed as SEQ ID NO: 2) were injected as the analyte. […] Finally, the apparent dissociation constants were determined under optimized conditions. […]

[3] = tested on: E. coli helix 31 hairpin RNA (ECh31WT); test: Fluorescence titration of 5′-fluorescein-labeled helix 31 RNA with peptide; assay type: binding; settings: 0.5 μM h31, 10 mM HEPES, 50 mM NaCl, 1 mM Na2EDTA, pH 7.5, 25° C.; hyperbolic curve fitting; read-out: apparent KD (fluorescence)
Protocol: Fluorescence methods. Fluorescence measurements were taken on a RF-5301PC spectrofluorometer (Shimadzu) at 25° C. using a 1 cm path-length quartz fluorometer cell. The emission spectra were acquired by scanning between 500 and 600 nm with an excitation wavelength of 494 nm, slit widths of 3 nm for excitation and emission. The fluorescent titrations were performed by adding increasing concentrations of peptide (5-150 μM) to 350 μl of 0.5 μM 5′-fluorescein-labeled helix 31 RNA in HEPES buffer (10 mM HEPES, 50 mM NaCl, 1 mM Na2EDTA at pH 7.5) and incubated for 2 min for each concentration point followed by spectrum scanning. […] RNA-peptide binding was determined by quenching of the fluorescence intensity upon addition of peptide to the sample. The fluorescence intensity at 523 nm was converted to a fraction bound ratio and the dissociation constant (KD) of RNA-peptide binding was determined by curve fitting using the Kaleidagraph™ 3.0 program, as described in Chapter 3, Section 3.5.3
Fluorescence titration assay. […] In this experiment, the fluorescence intensity decreased upon increases in the peptide concentration (FIG. 54); however, the percent change in the observed fluorescence intensity was fairly small (7%). […]
The relatively poor fits may be a result of the fact that the fluorescence changes are quite small leading to greater error. […]

In the case of “TYLPWPA [peptide 17, 7-mer peptide selected by phage display against helix 31 RNA]”, the Kd [1] is reported as 28 ± 10 µM, the “affinity for helix 31 RNA (in words)” value [2] is reported as “moderate affinity” and the “KD (SPR, kd/ka)” value ([2]; Langmuir 1:1 model, same running buffer, pH 7.5, 50 μL/min) is reported as 28 ± 1 µM. For the same substance, the “SPR response due to binding, free peptide as analyte” value ([2]; peptide without GFP) was “negligible responses” and the Kd [3] was 27 ± 4 µM.
